From ChEMBL document CHEMBL1201862, “PubChem BioAssay data set” (2004)
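How tested: cells in 96-well plates exposed to compound for 48 hours at five concentrations. The concentration for 50% growth inhibition is given as GI50.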 Activity calls are given as the source filed them. No stated cut-off is given here; in the data, active = GI50 up to about 1.1 µM and inactive = higher.

Columns and labels:
Assay in all cases: NCI anticancer screen, dose series, 48 h
ACHN = tested on: ACHN
HCC 2998 = tested on: HCC 2998
SNB-78 = tested on: SNB-78
XF498 = tested on: XF498
DMS-273 = tested on: DMS-273
DMS-114 = tested on: DMS-114
HOP-18 = tested on: HOP-18
LXFL 529 = tested on: LXFL 529
RXF 631 = tested on: RXF 631

## NC(CCCCCCCCCCP(=O)(O)O)C(=O)O (stereo not drawn)
ACHN
  GI50: > 100 µM (inactive)
HCC 2998
  GI50: > 100 µM (inactive)

## O=C(O)/C(Cc1ccnc2ccccc12)=N\O
ACHN
  GI50: > 100 µM (inactive)

## COc1cc(CCCOC2OC(COC3OCC(O)C(O)C3O)C(O)C(O)C2O)cc2cc(-c3ccc4c(c3)OCO4)oc12 (stereo not drawn)
SNB-78
  GI50: > 175 µM (inactive)
XF498
  GI50: > 175 µM (inactive)
DMS-273
  GI50: > 175 µM (inactive)
HCC 2998
  GI50: > 98.4 µM (inactive)
DMS-114
  GI50: > 175 µM (inactive)

## Oc1c(CNCCCN2CCCC2)cc(Cl)c2cccnc12
SNB-78
  GI50: 14.2 µM (inactive)
HOP-18
  GI50: 4.95 µM (inactive)
XF498
  GI50: 2.56 µM (inactive)
DMS-273
  GI50: 2.83 µM (inactive)
HCC 2998
  GI50: 3.1 µM (inactive)
DMS-114
  GI50: 3.05 µM (inactive)

## CN1c2ccccc2C(=O)NC12CCN(CCCC(=O)c1ccc(F)cc1)CC2
ACHN
  GI50: > 100 µM (inactive)
HCC 2998
  GI50: 19.7 µM (inactive)

## Cc1ccc2cc3cccc(C(=O)NCCN(C)C)c3nc2c1
SNB-78
  GI50: 1.37 µM (inactive)
HOP-18
  GI50: 2.23 µM (inactive)
XF498
  GI50: 0.977 µM (active)
DMS-273
  GI50: 0.647 µM (active)
HCC 2998
  GI50: 1.49 µM (inactive)
DMS-114
  GI50: 0.929 µM (active)

## COC(=O)C1=C(C)N2CCOC2(C)C(C(=O)OC)C1c1ccc[nH]1 (stereo not drawn)
ACHN
  GI50: > 100 µM (inactive)
HCC 2998
  GI50: > 100 µM (inactive)
LXFL 529
  GI50: > 100 µM (inactive)
DMS-114
  GI50: > 100 µM (inactive)

## OC1(c2ccccc2)CC2CCC(C1)N2CCc1ccccc1 (stereo not drawn)
ACHN
  GI50: 34.7 µM (inactive)
HCC 2998
  GI50: 58.3 µM (inactive)

## COC(=O)[C@@H]1C=C[C@H](NC(C)=O)C1
HCC 2998
  GI50: > 100 µM (inactive)

## COc1cc(/C=C2\N=C(c3ccccc3)N(c3ccc(C(=O)c4ccccc4)cc3N3C(=O)/C(=C/c4cc(OC)c(OC)c(OC)c4)N=C3c3ccccc3)C2=O)cc(OC)c1OC
ACHN
  GI50: 22.6 µM (inactive)
HCC 2998
  GI50: 2.94 µM (inactive)

## COc1cccc2c1C(=O)c1c(O)c3c(c(O)c1C2=O)C[C@@](O)(C(=O)CO)C[C@@H]3OC1CC(N2CCOCC2)C(O)C(C)O1 (stereo partly drawn)
SNB-78
  GI50: 0.0025 µM (active)
HOP-18
  GI50: 0.0034 µM (active)
ACHN
  GI50: 0.00513 µM (active)
XF498
  GI50: 0.0025 µM (active)
DMS-273
  GI50: 0.00409 µM (active)
HCC 2998
  GI50: 0.0127 µM (active)
DMS-114
  GI50: 0.0025 µM (active)

## O=C1OC(c2ccccc2)=N/C1=C\c1ccc(Oc2ccc(Cl)c(Cl)c2)cc1
SNB-78
  GI50: 25.9 µM (inactive)
HOP-18
  GI50: > 100 µM (inactive)
ACHN
  GI50: 63.1 µM (inactive)
HCC 2998
  GI50: 50 µM (inactive)
LXFL 529
  GI50: 25.6 µM (inactive)
DMS-114
  GI50: 15.4 µM (inactive)

## O=C(OCc1ccccc1)C(Cc1ccccc1)N(Cc1ccccc1)Cc1ccccc1 (stereo not drawn)
SNB-78
  GI50: > 100 µM (inactive)
ACHN
  GI50: 19.5 µM (inactive)
XF498
  GI50: 21.8 µM (inactive)
DMS-273
  GI50: 44.6 µM (inactive)
HCC 2998
  GI50: 35.7 µM (inactive)
LXFL 529
  GI50: 21.9 µM (inactive)
DMS-114
  GI50: 7.5 µM (inactive)

## CC(=O)OC1CC2(O)C(CCC3(C)C(c4ccc(=O)oc4)CCC32O)C2(C)C1=CC(O)C1OC12 (stereo not drawn)
SNB-78
  GI50: 0.0442 µM (active)
HOP-18
  GI50: 0.048 µM (active)
XF498
  GI50: 0.0693 µM (active)
DMS-273
  GI50: 0.04 µM (active)
HCC 2998
  GI50: 0.114 µM (active)
DMS-114
  GI50: 0.025 µM (active)

## CCOC(=O)Cn1c(=O)c2cc(C)cc3c(Cl)nc4c(OC)c(OC)cc1c4c32
ACHN
  GI50: > 100 µM (inactive)
HCC 2998
  GI50: > 100 µM (inactive)

## COc1nc2cccc(C(O)c3ccccc3)c2nc1-c1ccccc1 (stereo not drawn)
ACHN
  GI50: 5.83 µM (inactive)

## COC(=O)c1cc(NC2OCC(OC(C)=O)C(OC(C)=O)C2OC(C)=O)nc(SC)c1C(=O)OC (stereo not drawn)
ACHN
  GI50: > 100 µM (inactive)
HCC 2998
  GI50: > 100 µM (inactive)

## CC1=C(C)[C@@]2(C)O[C@@]2(C)O[C@@]2(C)O[C@@]12C
ACHN
  GI50: > 100 µM (inactive)

## Cc1ccc2oc3c(ccc(=O)n3C)c(=O)c2c1
ACHN
  GI50: > 100 µM (inactive)
HCC 2998
  GI50: > 100 µM (inactive)

## Cc1cc(C)cc(Sc2c([N+](=O)[O-])ncn2C)c1
SNB-78
  GI50: 13.6 µM (inactive)
HOP-18
  GI50: 1.28 µM (inactive)
ACHN
  GI50: 26.2 µM (inactive)
XF498
  GI50: 16.6 µM (inactive)
DMS-273
  GI50: 8.09 µM (inactive)
HCC 2998
  GI50: 25 µM (inactive)
RXF 631
  GI50: 16 µM (inactive)
LXFL 529
  GI50: 7.83 µM (inactive)
DMS-114
  GI50: 12.2 µM (inactive)

## Cc1ccc(S(=O)(=O)N(CC(=O)O)c2ccccc2)cc1
HOP-18
  GI50: > 100 µM (inactive)
ACHN
  GI50: > 100 µM (inactive)
DMS-273
  GI50: > 100 µM (inactive)
HCC 2998
  GI50: > 100 µM (inactive)
LXFL 529
  GI50: > 100 µM (inactive)

## COC(=O)c1ccccc1/N=C(/NC1CCCCCC1)NS(=O)(=O)c1ccc(C)cc1
ACHN
  GI50: > 100 µM (inactive)
HCC 2998
  GI50: > 100 µM (inactive)

## COc1ccc(OC)c(SC(CC(=O)c2ccccc2)c2ccccc2)c1 (stereo not drawn)
ACHN
  GI50: 19.6 µM (inactive)
HCC 2998
  GI50: 17.5 µM (inactive)

## O=P1(c2ccccc2)Nc2ccccc2SSc2ccccc2N1
SNB-78
  GI50: 24.2 µM (inactive)
HOP-18
  GI50: 19.2 µM (inactive)
XF498
  GI50: 17.8 µM (inactive)
DMS-273
  GI50: 17.4 µM (inactive)
HCC 2998
  GI50: 20.7 µM (inactive)
DMS-114
  GI50: 19.5 µM (inactive)

## Cc1cc(S(=O)(=O)Nc2nc(Nc3ccccc3)n[nH]2)c(SSc2cc(Cl)c(C)cc2S(=O)(=O)Nc2nc(Nc3ccccc3)n[nH]2)cc1Cl
ACHN
  GI50: > 100 µM (inactive)

## COc1cccc(C2C(C(=O)O)=C(CO)Oc3cc4c(cc32)OCO4)c1OC (stereo not drawn)
SNB-78
  GI50: > 100 µM (inactive)
HOP-18
  GI50: > 100 µM (inactive)
ACHN
  GI50: > 100 µM (inactive)
XF498
  GI50: 9.25 µM (inactive)
RXF 631
  GI50: > 100 µM (inactive)
LXFL 529
  GI50: > 100 µM (inactive)

## C1CC2=C(C1)[Se]C(=C1Sc3nsnc3S1)[Se]2
ACHN
  GI50: > 100 µM (inactive)
HCC 2998
  GI50: > 100 µM (inactive)
